In the first assay the target is T1, cloned human CCR8 receptor stably expressed in L1.2 cells (Homo sapiens, UniProt P51685).
T1 construct: expressed in transfected cells
T1 sequence (P51685 whole entry): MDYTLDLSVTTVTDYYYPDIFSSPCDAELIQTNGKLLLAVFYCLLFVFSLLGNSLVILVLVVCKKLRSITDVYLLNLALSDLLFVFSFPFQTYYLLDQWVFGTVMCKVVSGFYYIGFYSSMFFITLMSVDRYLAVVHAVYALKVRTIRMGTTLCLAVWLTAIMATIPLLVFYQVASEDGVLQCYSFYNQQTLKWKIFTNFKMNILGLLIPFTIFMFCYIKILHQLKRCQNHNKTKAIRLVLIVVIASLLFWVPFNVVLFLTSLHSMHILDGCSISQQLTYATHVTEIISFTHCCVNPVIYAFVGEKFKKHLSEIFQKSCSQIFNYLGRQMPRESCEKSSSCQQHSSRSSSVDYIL
The experiment in a line: whole cell binding screen: inhibition of biotinylated human I309 binding to CCR8 (FMAT 8100 HTS). The settings on record: Ki of compounds to inhibit I-309 binding to CCR8, L1.2/hCCR8 cells, biotinylated human I-309, 10 point concentration response starting at 10 μM. From the text:
This whole cell binding screen evaluates the ability of compounds to inhibit biotinlyated human I309 binding to the cloned human CCR8 receptor stably expressed in L1.2 cells. Human CCR8 gene was amplified by PCR using PFU polymerase under standard conditions from human genomic DNA purchased from Stratagene. The PCR primers used were:
The 5′ and 3′ primers contained flanking enzyme sites (Bam Hi and Not 1,respectively), which were used to subclone the gene into pcDNA3.1. […] The CCR8 vector was then transfected into L1.2 cells (murine pre-B cells) by electroporation.
Compounds were screened using the FMAT™ 8100 HTS System (purchased from Applied Biosystems).
A suspension was prepared of L1.2/hCCR8 cells at 4.0×10^5 cells/mL in a binding buffer (Buffer consisting of Hanks Balanced Salt Solution (without phenol red), 10 mM HEPES, 0.1% Fatty Acid Free BSA, 0.02% Sodium Azide).
Dilution series of 10 mM stock concentrations of the test compounds were prepared in DMSO and further diluted into binding buffer defined above) to three times the final assay concentration.
10 point concentration response curve is constructed for each compound, starting at 10 μM (final assay concentration in Binding Buffer). […] The components were mixed in wells by covering the plate with aluminum foil and rotating for 0.5 hours. […] Average fluorescence reported for each concentration was normalized to percent inhibition based on negative (no inhibitor) and positive (100 nM excess unlabeled I309 (R and D Systems)) controls.
Regarding `CCOC(=O)N1CCC(NS(=O)(=O)c2ccc3cccc(NC(=O)c4ccccc4)c3c2)CC1` [Compound H-51, 4-(8-Benzoylamno-naphthalene-2-sulfonylamino)-piperidine-1-carboxylic acid ethyl ester], the Ki is < 30000 nM.

With `CCCC(=O)N1CCC(NS(=O)(=O)c2ccc(NC(=O)C3CCC3)c3ccccc23)CC1` [Compound D-19, Cyclobutanecarboxylic acid [4-(1-butyryl-piperidin-4-ylsulfamoyl)-naphthalen-1-yl]-amide], the Ki was < 500 nM.

For `Cc1ccccc1C(=O)Nc1ccc(S(=O)(=O)NC2CCN(C(=O)CN)CC2)c2ccccc12` [Compound C-122, N-{4-[1-(2-Amino-acetyl)-piperidin-4-ylsulfamoyl]-naphthalen-1-yl}-2-methyl-benzamide], the Ki is < 500 nM.

Take `CCOC(=O)N1CCC(NS(=O)(=O)c2cccc3c(NC(=O)c4ccccc4)cccc23)CC1` [Compound H-6, 4-(5-Benzoylamino-naphthalene-1-sulfonylamino)-piperidine-1-carboxylic acid ethylester]: the Ki was < 500 nM.

The same assay, now with this note: L1.2/hCCR8 cells, biotinylated human I-309, 10 point concentration response starting at 10 μM; read-out: Ki of compounds to inhibit I-309 binding to CCR8.
Regarding `Cc1ccccc1NC(=O)c1ccc(S(=O)(=O)NC2CCN(C(=O)OC(C)(C)C)CC2)c2ccccc12` [Compound F-4, 4-(4-o-Tolylcarbamoyl-naphthalene-1-sulfonylamino)-piperidine-1-carboxylic acid tert-butyl ester], the inhibition constant Ki was < 500 nM.

`CCOC(=O)N1CCC(NS(=O)(=O)c2cccc3c(C(=O)NC4CCCCC4)cccc23)CC1` [Compound H-25, 4-(5-Cyclohexylcarbamoyl-naphthalene-1-suffonylamino)-piperidine-1-carboxylic acid ethyl ester]: the Ki is < 1000 nM.

For the compound `CCOC(=O)N1CCC(NS(=O)(=O)c2cccc3c(NC(=O)c4ccccc4C)cccc23)CC1` [Compound H-12, 4-[5-(2-Methyl-benzoylamino)-naphthalene-1-sulfonylamino]-piperidine-1-carboxylic acid ethyl ester], the Ki is < 1000 nM.

In the case of `COc1ccc(NS(=O)(=O)c2ccc(NC(=O)C3CCCCC3)c3ccccc23)cc1` [Compound B-4, Cyclohexanecarboxylic acid [4-(4-methoxy-phenylsulfamoyl)-naphthalen-1-yl]-amide], the inhibition constant Ki is < 500 nM.

`Cc1ccccc1C(=O)Nc1ccc(S(=O)(=O)NC2[C@@H](C)CNC[C@@H]2C)c2ccccc12` [Compound J-46]: the Ki was < 500 nM.

Take `Cc1ccccc1C(=O)Nc1ccc(S(=O)(=O)N[C@@H]2CCN(C(=O)[C@H](C)N)C[C@@H]2C)c2ccccc12` [Compound J-4, (3S, 4R)-N-{4-[1-(2-(S)-Amino-propionyl)-3-methyl-piperidin-4-ylsulfamoyl]-naphthalen-1-yl}-2-methyl-benzamide]: the inhibitory constant (Ki) is < 500 nM.

As to `CCCC(=O)N1CCC(NS(=O)(=O)c2ccc(NC(=O)c3ccccc3OC)c3ccccc23)CC1` [Compound C-104, N-[4-(1-Butyryl-piperidin-4-ylsulfamoyl)-naphthalen-1-yl]-2-methoxy-benzamide], the Ki was < 500 nM.

On to `CCNC(=O)N1CCC(NS(=O)(=O)c2ccc(NC(=O)c3ccccc3)c3ccccc23)CC1` [Compound C-7, 4-(4-Benzoylamino-naphthalene-1-sulfonylamino)-piperidine-1-carboxylic acid ethylamide], for which the inhibition constant Ki was < 500 nM.

Turning to `CCOC(=O)N1CCC(NS(=O)(=O)c2ccc(CNCc3ccccc3)c3ccccc23)CC1` [Compound G-32, 4-[4-(Benzylamino-methyl)-naphthalene-1-sulfonylamino]-piperidine-1-carboxylic acid ethyl ester], the inhibition constant Ki was < 500 nM.

Take `Cc1ccccc1C(=O)Nc1ccc(S(=O)(=O)NC2CCN(C(=O)OC(C)(C)C)CC2)c2c1CCC2` [Compound H-66, 4-[7-(2-Methyl-benzoylamino)-indane-4-sulfonylamino]-piperidine-1-carboxylic acid tert-butyl ester]: the inhibition constant (Ki) was < 1000 nM.

`CCNC(=O)N1CCCC(NS(=O)(=O)c2ccc(NC(=O)c3ccccc3C)c3ccccc23)C1` (racemic) [Compound C-113, (±)-3-[4-(2-Methyl-benzoylangno)-naphthalene-1-sulfonylamino]-piperidine-1-carboxylic acid ethylamide]: the Ki was < 500 nM.

For the compound `CCOC(=O)N1CCC(NS(=O)(=O)c2cccc3c(NC(=O)c4cccs4)cccc23)CC1` [Compound H-9, 4-15-[(Thiophene-2-carbonyl)-amino]-naphthalene-4-sulfonylamino-4-piperidine-1-carboxylic acid ethyl ester], the Ki was < 1000 nM.

Consider `CCCC(=O)N1CCC(NS(=O)(=O)c2ccc(NC(=O)C3CCN(C)CC3)c3ccccc23)CC1` [Compound D-24, 1-Methyl-piperidine-4-carboxylic acid [4-(1-butyryl-piperidin-4-ylsulfamoyl)-naphthalen-1-yl]-amide], for which the inhibition constant Ki is < 30000 nM.

Consider `Cc1ccccc1C(=O)NCc1ccc(S(=O)(=O)NC2CCCCC2)c2ccccc12` [Compound G-5, N-(4-Cyclohexylsulfamoyl-naphthalen-1-ylmethyl)-2-methyl-benzamide], for which the Ki is < 1000 nM.

For the compound `CCCC(=O)N1CCC(NS(=O)(=O)c2ccc(NC(=O)c3ccccc3C(F)(F)F)c3ccccc23)CC1` [Compound C-101, N-[4-(1-Butyryl-piperidin-4-ylsulfamoyl)-naphthalen-1-yl]-2-trifluoromethyl-benzamide], the inhibitory constant (Ki) was < 500 nM.

Take `CCCC(=O)N1CC[C@H](NS(=O)(=O)c2ccc(NC(=O)c3ncccc3C)c3ccccc23)[C@H](C)C1` (racemic) [Compound D-4, (±)-(cis)-3-Methyl-pyridine-2-carboxylic acid [4-(1-butyryl-3-methyl-piperidin-4-ylsulfamoyl)-naphthalen-1-yl]-amide]: the inhibition constant Ki is < 500 nM.

As to `O=C(Nc1ccc(S(=O)(=O)NC2CCNCC2)c2ccccc12)c1c(F)cccc1C(F)(F)F` [Compound C-107, 2-Fluoro-N-[4-(piperidin-4-ylsulfamoyl)-naphthalen-1-yl]-6-trifluoromethyl-benzamide], the Ki is < 30000 nM.

Turning to `O=C(Nc1ccc(S(=O)(=O)NC2CCNCC2)c2ccccc12)C1CC1` [Compound D-12, Cyclopropanecarboxylic acid [4-(piperidin-4-ylsulfamoyl)-naphthalen-1-yl]-amide], the Ki was < 30000 nM.

On to `Cc1ccccc1C(=O)Nc1ccc(S(=O)(=O)N[C@H]2CCNC[C@@H]2C)c2ccccc12` (racemic) [Compound C-14, (±)-trans-2-MethylN-[4-(3-methyl-piperidin-4-ylsulfamoyl)-naphthalen-1-yl]-benzamide], for which the inhibition constant (Ki) was < 500 nM.

Turning to `CC(=O)N1C[C@@H](C)[C@@H](NS(=O)(=O)c2ccc(NC(=O)c3ccccc3C)c3ccccc23)[C@@H](C)C1` [Compound C-73, (±)-(cis,cis)-N-[4-(1-Acetyl-3,5-dimethyl-piperidin-4-ylsulfamoyl)-naphthalen-1-yl]-2-methyl-benzamide], the Ki was < 1000 nM.

Consider `CCOC(=O)N1CCC(NS(=O)(=O)c2ccc(NC(=O)c3ccccc3C)c3c2CCCC3)C1` (racemic) [Compound E-33, (±)-3-[4-(2-Methyl-benzoylamino)-5,6,7,8-tetrahydro-naphthalene-1-sulfonylamino]-pyrrolidine-1-carboxylic acid ethyl ester], for which the inhibition constant Ki was < 500 nM.

As for `O=C(Nc1cccc2c(S(=O)(=O)Nc3ccc(F)cc3)cccc12)c1ccccc1` [Compound H-4, N-[5-(4-Fluoro-phenylsulfamoyl)-naphthalen-1-yl]-benzamide], the Ki was < 30000 nM.

In the case of `Cc1ccccc1C(=O)Nc1cccc2c(S(=O)(=O)N[C@H]3CCN(C(=O)CN(C)C)C[C@H]3C)cccc12` (racemic) [Compound K-1, (±)-(cis)-N-{5-[1-(2-Dimethylamino-acetyl)-3-methyl-piperidin-4-ylsulfamoyl]-naphthalen-1-yl}-2-methyl-benzamide], the Ki was < 500 nM.

Consider `CCOC(=O)N1CCC(NS(=O)(=O)c2cccc3c(C(=O)Nc4cccnc4)cccc23)CC1` [Compound H-35, 4-[5-(Pyridin-3-ylcarbamoyl)-naphthalene-1-sulfonylamino]-piperidine-1-carboxylic acid ethyl ester], for which the Ki was < 1000 nM.

In the case of `O=S(=O)(NC1CCCCC1)c1ccc(CNC2CCCCC2)c2ccccc12` [Compound G-31, 4-Cyclohexylaminomethyl-naphthalene-1-sulfonic acid cyclohexylamide], the Ki was < 500 nM.

In the case of `CCCC(=O)N1CCC(NS(=O)(=O)c2cc3c(c(N4C(=O)c5ccccc5C4=O)c2)CCCC3)CC1` [Compound H-60, 4-(1,3-Dioxo-1,3-dihydro-isoindol-2-yl)-5,6,7,8-tetrahydro-naphthalene-2-sulfonic acid (1-butyryl-piperidin-4-yl)-amide], the Ki is < 30000 nM.

In the case of `CCOC(=O)N1CCCC(NS(=O)(=O)c2ccc(NC(=O)c3ccccc3C)c3ccccc23)C1` (racemic) [Compound C-115, (±)-3-[4-(2-Methyl-benzoylamno)-naphthalene-1-sulfonylamino]-piperidine-1-carboxylic acid ethyl ester], the Ki is < 500 nM.

(Values after patent US7491827B2, “Aryl sulfonamides useful as inhibitors of chemokine receptor activity” (Millennium Pharmaceuticals, Inc., priority 2003, dated 2009).)
